This note sets out measurements from article PMC9908032, “Novel nitroxide-bile acid conjugates inform substrate requirements for human bile acid transporters” (European journal of pharmaceutical sciences : official …, 2022).

Data set [1] deals with T1, apical sodium dependent bile acid transporter (hASBT) (Homo sapiens, UniProt Q12908).
T1 construct: gene SLC10A2
T1 sequence (Q12908 1-348): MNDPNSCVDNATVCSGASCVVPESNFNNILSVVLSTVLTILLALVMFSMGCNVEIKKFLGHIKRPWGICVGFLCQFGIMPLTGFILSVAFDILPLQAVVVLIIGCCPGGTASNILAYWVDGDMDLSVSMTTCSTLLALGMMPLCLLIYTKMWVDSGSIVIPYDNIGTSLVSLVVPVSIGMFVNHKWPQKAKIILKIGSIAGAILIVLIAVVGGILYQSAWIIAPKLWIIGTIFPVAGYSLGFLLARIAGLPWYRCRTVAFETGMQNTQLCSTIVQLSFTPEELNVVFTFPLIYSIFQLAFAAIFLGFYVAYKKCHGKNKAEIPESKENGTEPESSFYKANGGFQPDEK
Kind of data set: inhibition of [3H]-taurocholate uptake in stably transfected hASBT-MDCK cells. It counts as cell-based.

Data set [2] addresses T2, Na+/taurocholate cotransporting polypeptide (hNTCP) (Homo sapiens, UniProt Q14973).
T2 construct: gene SLC10A1
T2 sequence (Q14973 1-349): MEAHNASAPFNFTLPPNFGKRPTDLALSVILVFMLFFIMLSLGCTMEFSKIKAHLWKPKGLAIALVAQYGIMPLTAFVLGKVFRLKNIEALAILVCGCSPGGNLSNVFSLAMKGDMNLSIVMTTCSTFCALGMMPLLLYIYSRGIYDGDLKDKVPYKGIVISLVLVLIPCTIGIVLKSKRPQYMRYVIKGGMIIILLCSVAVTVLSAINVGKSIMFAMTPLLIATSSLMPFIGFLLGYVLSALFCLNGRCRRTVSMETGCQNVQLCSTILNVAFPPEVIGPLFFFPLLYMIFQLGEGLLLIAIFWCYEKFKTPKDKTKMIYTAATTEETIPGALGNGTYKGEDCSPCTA
Nature of the data set: inhibition of [3H]-taurocholate uptake in transiently transfected hNTCP-HEK293T cells. It counts as cell-based.

Substrate in data set [3]: C[C@H](CCC(=O)NCCS(=O)(=O)O)[C@H]1CC[C@H]2[C@@H]3[C@H](O)C[C@@H]4C[C@H](O)CC[C@]4(C)[C@H]3C[C@H](O)[C@]12C
Nature of the data set: cells, lysate or membranes. The conditions noted are these: Na+.

As a reminder, the Ki is the dissociation constant of the complex between target and ligand, obtained from inhibition or displacement. A lower Ki goes with a stronger hold on the target. One may read the Km as the concentration of substrate that gives half-maximal velocity.

With `C[C@H](CCC(=O)NCC(=O)O)[C@H]1CC[C@H]2[C@@H]3[C@H](O)C[C@@H]4C[C@H](O)CC[C@]4(C)[C@H]3C[C@H](O)[C@]12C` [GCA, glycocholic acid], the Ki in data set [1] worked out at 8.28 ± 0.57 µM; in data set [2], 2.47 ± 0.43 µM.

B1: Na+/taurocholate cotransporting polypeptide (hNTCP) (Homo sapiens) (protein)
chain: T2 sequence (Q14973 1-349)
As to B1, in data set [3], the Km is 2.14 ± 1.55 µM.
